# Assay results from article PMC9146426, “3,6′- and 1,6′-Dithiopomalidomide Mitigate Ischemic Stroke in Rats and Blunt Inflammation” (Pharmaceutics, 2022).
# Target: T1, cereblon (Homo sapiens, UniProt Q96SW2)
# T1 construct: gene CRBN; cereblon/DDB1-CUL4A-Rbx1 complex; with DDB1-CUL4A-Rbx1
# Experiment: AlphaScreen bead-based cereblon binding assay (BPS Bioscience #[…]) with BRD3
# T1 sequence (Q96SW2 whole entry): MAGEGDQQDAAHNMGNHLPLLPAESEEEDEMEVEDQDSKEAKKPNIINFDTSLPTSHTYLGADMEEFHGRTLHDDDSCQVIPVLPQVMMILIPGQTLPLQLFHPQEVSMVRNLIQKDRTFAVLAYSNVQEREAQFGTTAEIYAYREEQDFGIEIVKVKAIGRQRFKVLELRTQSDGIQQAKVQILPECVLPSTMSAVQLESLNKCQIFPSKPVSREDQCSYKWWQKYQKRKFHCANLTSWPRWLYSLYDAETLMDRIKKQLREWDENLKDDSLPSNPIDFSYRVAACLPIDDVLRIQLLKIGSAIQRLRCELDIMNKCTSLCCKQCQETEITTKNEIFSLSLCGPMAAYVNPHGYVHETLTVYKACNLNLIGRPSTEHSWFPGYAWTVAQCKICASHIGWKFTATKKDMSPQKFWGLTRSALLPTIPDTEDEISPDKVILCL
# T1 sequence (Q16531 2-1140 partner): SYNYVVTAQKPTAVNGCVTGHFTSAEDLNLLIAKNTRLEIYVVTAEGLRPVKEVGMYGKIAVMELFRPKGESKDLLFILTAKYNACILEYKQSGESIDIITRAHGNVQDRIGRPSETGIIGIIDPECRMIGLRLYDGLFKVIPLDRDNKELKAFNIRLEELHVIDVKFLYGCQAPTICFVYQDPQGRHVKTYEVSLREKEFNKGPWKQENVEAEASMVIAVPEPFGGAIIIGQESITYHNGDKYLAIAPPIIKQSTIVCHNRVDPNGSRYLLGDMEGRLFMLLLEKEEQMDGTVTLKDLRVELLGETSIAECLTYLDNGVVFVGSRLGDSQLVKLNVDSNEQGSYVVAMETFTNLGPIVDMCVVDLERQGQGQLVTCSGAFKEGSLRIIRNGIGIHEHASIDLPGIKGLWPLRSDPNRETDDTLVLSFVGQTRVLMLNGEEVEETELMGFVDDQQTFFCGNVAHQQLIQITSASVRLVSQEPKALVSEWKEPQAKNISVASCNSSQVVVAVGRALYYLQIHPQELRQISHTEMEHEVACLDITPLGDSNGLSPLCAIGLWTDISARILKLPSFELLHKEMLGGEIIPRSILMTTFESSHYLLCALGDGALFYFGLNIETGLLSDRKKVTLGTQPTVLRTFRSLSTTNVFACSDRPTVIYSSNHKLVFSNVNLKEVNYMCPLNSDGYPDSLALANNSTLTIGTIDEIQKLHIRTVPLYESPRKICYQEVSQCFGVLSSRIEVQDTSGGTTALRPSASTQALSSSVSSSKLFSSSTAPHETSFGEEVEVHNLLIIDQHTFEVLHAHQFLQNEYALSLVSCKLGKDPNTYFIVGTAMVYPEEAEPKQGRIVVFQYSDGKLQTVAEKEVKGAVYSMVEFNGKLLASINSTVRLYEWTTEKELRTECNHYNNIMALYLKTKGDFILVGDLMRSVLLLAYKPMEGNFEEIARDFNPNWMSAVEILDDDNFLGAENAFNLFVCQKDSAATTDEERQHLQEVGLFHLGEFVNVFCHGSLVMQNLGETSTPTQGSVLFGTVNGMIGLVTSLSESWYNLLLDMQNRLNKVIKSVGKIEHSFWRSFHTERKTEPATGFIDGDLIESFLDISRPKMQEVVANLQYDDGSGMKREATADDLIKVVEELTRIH
# T1 sequence (Q13619 whole entry partner): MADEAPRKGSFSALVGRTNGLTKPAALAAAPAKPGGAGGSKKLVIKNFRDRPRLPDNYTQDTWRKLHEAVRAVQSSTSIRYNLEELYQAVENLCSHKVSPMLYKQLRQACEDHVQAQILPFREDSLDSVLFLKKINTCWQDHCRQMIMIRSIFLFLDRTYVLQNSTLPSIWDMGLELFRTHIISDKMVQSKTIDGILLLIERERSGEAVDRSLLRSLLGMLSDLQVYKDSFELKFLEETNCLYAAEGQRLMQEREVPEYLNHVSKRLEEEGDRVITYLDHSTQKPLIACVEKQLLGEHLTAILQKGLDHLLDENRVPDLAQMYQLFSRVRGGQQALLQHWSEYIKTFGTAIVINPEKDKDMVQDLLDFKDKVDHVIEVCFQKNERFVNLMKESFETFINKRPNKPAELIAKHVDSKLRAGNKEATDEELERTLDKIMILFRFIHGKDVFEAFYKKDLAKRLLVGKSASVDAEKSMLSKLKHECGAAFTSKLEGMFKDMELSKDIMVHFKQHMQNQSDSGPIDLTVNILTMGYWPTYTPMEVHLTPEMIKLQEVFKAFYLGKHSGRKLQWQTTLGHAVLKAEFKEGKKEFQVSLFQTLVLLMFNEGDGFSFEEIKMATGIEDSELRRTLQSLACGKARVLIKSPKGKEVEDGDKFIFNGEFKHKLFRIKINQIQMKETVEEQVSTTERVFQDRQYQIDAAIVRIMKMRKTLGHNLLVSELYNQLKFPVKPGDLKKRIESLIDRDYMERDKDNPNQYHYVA
# T1 sequence (P62877 whole entry partner): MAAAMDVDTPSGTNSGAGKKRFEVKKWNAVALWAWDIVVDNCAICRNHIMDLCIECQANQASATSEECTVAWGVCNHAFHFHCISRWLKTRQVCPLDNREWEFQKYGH
row,IC50 [µM],Compound
1,1.52,"Nc1cccc2c1C(=O)N(C1CCC(=S)NC1=O)C2=S (centres unmarked) [1,6′-DP, 1,6′-dithiopomalidomide]"
2,0.94,"Nc1cccc2c1C(=S)N(C1CCC(=S)NC1=O)C2=O (centres unmarked) [3,6′-DP, 3,6′-dithiopomalidomide]"
